# Read-outs that look alike come from different tables or passages of the source.
# Tests used:
# [1] = tested on: caspase-3 in OV-1063 cells; experiment: EnzChek Caspase-3 assay; type: cell-based, human
# From the text: (§1) (2) By the EnzChektm Caspase-3 Assay Kit (Molecular probes, Eugene, Oreg.). This Kit allows the detection of apoptosis by assaying for increases in caspase-3 and other DEVD-specific protease activities (e.g., caspase-7). The basis for the assay is rodamine 110 bis-(N-CBZ-aspartil-L-glutarnyl-L-valyl-aspartic acid amide) (Z-DEVD-R110). This substrate is a bisamide derivative of rhodamine 110(R110) containing DEVD peptides covalently linked to each of R110's amino groups. Upon enzymatic cleavage, the non-fluorescent bisamide substrate converted to the fluorescent R110, which can be quantified by fluorescence microplate reader using excitation at 485±10 nm and emission detection at 535±10 nm.
# (§2) (12) (5 μM and 7.5 μM, respectively) for 5 or 16 hr. Both “induced” and “control” cells were then harvested and lysed. Enzyme reactions were performed in 96-well plates with 50 μg of cytosolic proteins (55 minutes of incubation) and with a final concentration of 25 μM Z-DEVD-R110 substrate as described in the kit protocol.
# 41McisR = experiment: Microculture tetrazolium (MTS) cell survival assay; type: cell-based; conditions: for resistance factor (IC50 resistant/IC50 sensitive): 41McisR/41M; for IC50: 24 hours incubation, MTS
# Protocol: (§3) Cytotoxicity of the synthesized complexes was also tested by the MTS method^(21). Accordingly, the compounds were incubated for 24 hours with the corresponding cell lines and the cell survival in compound-treated cultures was evaluated.
# (§4) The complexes were incubated for 24 hours with the above mentioned cell lines and the cell survival in compound-treated cultures was evaluated by the (microculture tetrazolium) MTS method as previously reported.
# CH1 = experiment: Microculture tetrazolium (MTS) cell survival assay; type: cell-based; conditions: 24 hours incubation
# Protocol: as §3, §4
# A2780 = experiment: Microculture tetrazolium (MTS) cell survival assay; type: cell-based; conditions: 24 hours incubation
# Protocol: as §3, §4
# CH1cisR = experiment: Microculture tetrazolium (MTS) cell survival assay; type: cell-based; conditions: for IC50: 24 hours incubation, MTS; for resistance factor (IC50 resistant/IC50 sensitive): CH1cisR/CH1
# Protocol: as §3, §4
# 41M = experiment: Microculture tetrazolium (MTS) cell survival assay; type: cell-based; conditions: 24 hours incubation
# Protocol: as §3, §4
# A2780cisR = experiment: Microculture tetrazolium (MTS) cell survival assay; type: cell-based; conditions: for IC50: 24 hours incubation, MTS; for resistance factor (IC50 resistant/IC50 sensitive): A2780cisR/A2780
# Protocol: as §3, §4
# calf thymus DNA = experiment: DNA binding (calf thymus DNA platination); conditions: for t1/2 half time of the binding to calf thymus DNA: 10 mM NaClO4, 37° C., ri = 0.08, differential pulse polarography; for ΔΔεmax, maximum of the positive CD band at around 275 nm: difference between control and platinated DNA
# Protocol: The formation of calf thymus DNA platination was also examined. To this end, calf thymus DNA was incubated with different compounds (Table 3) in which the following parameters were determined: […]
# OV-1063 cells [2] = experiment: Determination of Pt-DNA adducts by FAAS; type: cell-based, human; conditions: for Pt-DNA adducts: OV-1063, 24 hr
# Protocol: (§5) Cells were seeded for 48 hr before one of the drugs was added to the culture medium. After 24 hr of exposure, the complexes were removed and the cells washed twice with ice-cold PBS and pelleted. DNA from platinum-containing material (2*10^6 cells) was extracted from the cell pellet by QIAamp DNA Blood Kit (QIAGEN, Germany) according to the manufacture instructions. DNA yield was determined by measuring the concentration of DNA in the eluate by absorbance at 260 nm.
# C-26 cells [3] = experiment: Determination of Pt-DNA adducts by FAAS; type: cell-based, human; conditions: for Pt-DNA adducts: C-26, 24 hr
# Protocol: as §5
# plasmid pS16-hGH DNA = experiment: Determination of Pt-DNA adducts by EtBr fluorescence; type: binding; conditions: DNA modified 24 hr
# Protocol: A plasmid (4.8 kbp) containing a gene coding for human growth hormone, plasmid pS16-hGH, was prepared as previously described^(23). The freshly prepared DNA was analyzed by agarose gel (1%) electrophoresis using post-staining with SYBR Green I fluorescent dye (Molecular Probes, Eugene, Oreg.). […] The ratio of absorbance at 260 nm to that at 280 nm was always between 1.8 and 1.9.
# DNA were modified by the platinum complexes in 10 mM NaClO4 (pH 7.0) at 37° C. in the dark for 24 hr. Measurements of EtBr fluorescence were performed on an LS50B luminescence spectrometer (Perkin Elmer, Norwalk, Conn.). Fluorescence measurements of DNA modified by platinum in the presence of EtBr were performed using the excitation wavelength of 546 nm (slit 10 run) and emission wavelength of 590 nm (slit 10 nm) at 25° C. The concentrations were 0.01 mg/ml for DNA and 0.04 mg/ml for EtBr, which corresponded to the saturation of all intercalation sites of EtBr in DNA.
# EtBr, as the fluorescent probe, was used to distinguish between perturbations induced in DNA by adducts of platinum (II) compounds^(14). Binding of EtBr by intercalation is blocked in a stoichiometric manner by formation of the bifunctional adducts, as of Cis-Pt, which results in a loss of fluorescence intensity. On the other hand, formation of monofunctional adducts results only in a slight decrease of EtBr fluorescence.
# OV-1063 cells [4] = experiment: Platinum complex intracellular accumulation (FAAS); type: cell-based, human; conditions: OV-1063, 24 hr
# Protocol: (§6) Cells were seeded for 48 hr before one of the complexes was added to the culture medium. After 24 hr of exposure, the complexes were removed and the cells washed twice with ice-cold PBS and pelleted. The cells (1*10^6) were dried and mineralized by heating for 10 min in 65% HNO3 (BDH, England)^(22). Samples were dissolved in de-ionized water and each sample was measured at two different dilutions by flameless Zeeman atomic absorption spectrometer (FAAS). The calibration curves included 5 standards of K2PtCl4 stock solution with concentrations ranging from 50 to 250 ng platinum per ml. Platinum content was expressed as picomoles platinum per 1*10^6 cells.
# (§7) The Pt content associated with the cells was measured by Atomic Absorption Spectroscopy (AAS).
# C-26 cells [5] = experiment: Platinum complex intracellular accumulation (FAAS); type: cell-based, human; conditions: C-26, 24 hr
# Protocol: as §6, §7
# OV-1063 cells [6] = experiment: Methylene blue (MB) assay of cell survival; type: cell-based, human; conditions: mean ± SD
# Protocol: (§8) A human ovarian carcinoma cell line (OV-1063), established at the Hadassah University hospital and human colon carcinoma cell line (C-26) were maintained in RPMI-1640 medium supplemented with 10% FCS, antibiotics and glutamine. All culture medium components were purchased from Biological Industries (Beit-HaEmek, Israel). Both cell lines were maintained at 37° C. in a water-jacketed CO2 incubator.
# (§9) Cytotoxicity of the synthesized complexes was tested by the methylene blue (MB) staining assay^(19). A fixed number of exponentially growing cells in 200 μl medium were plated in 96-microwell, flat-bottomed plates. For each of the complexes tested, 4 well were used. Following 24 hr in culture, 20 μl of different concentration of the complexes were added to each well containing untreated cells. Normal saline was added to the controls. Cells were exposed to complexes for 4, 24, or 72 hr. At the end of exposure for a fixed time interval, the treated cells as well as parallel control cells were washed and incubation was continued in fresh medium until termination of the experiment. Following 72 hr of growth, cells were fixed by adding 50 μl of 2.5% of glutaraldehyde to each well for 15 min. Fixed cells were rinsed 10 times with fresh de-ionized water and once with borate buffer (0.1 M, pH=8.5), dried and stained with MB (100 μl of 1% solution in 0.1 M borate buffer, pH=8.5) for 1 hr at room temperature. Stained cells were rinsed thoroughly with de-ionized water to remove any non-cell-bound die and then dried. The MB bound to the fixed cells was extracted by incubation at 37° C. with 200 μl of 0.1N HCl for 1 hr, and the net optical density (OD) of the die in each well was determined by a plate spectrophotometer (Labsystems Multyskan BICHROMATIC, Finland) at 620 nm.
# C-26 cells [7] = type: cell-based; conditions: C-26 cells, mean ± SD
# Protocol: as §8, §9
# caspase-3 in C-26 cells = experiment: EnzChek Caspase-3 assay; type: cell-based, human; conditions: 4.5 μM complex, cisplatin 1.5 μM, 5 or 16 hrs
# From the text: as §1, §2
# C-26 colon carcinoma = experiment: In vivo antitumor efficacy; set-up: species or system BALB/C mice; conditions: 5 mg/kg, three injections at weekly intervals from day 3 after i.p. tumor inoculation
# Protocol: Female BALB/C mice (in the weight range of 17–20 g) were injected i.p. with 1*10^6 C-26 colon carcinomas.
# Treatment began at day 3 after tumor inoculation and was repeated twice for a total of three injections at weekly intervals.
# Female BALB/C mice (in the weight range of 17–20 gr) were injected i.p. with 1*10^6 C-26 colon carcinomas.
# Treatment was as performed according to the schedule described above.
# [8] = 4 h exposure, read-out: IC50, 4 h
# [9] = 24 h exposure, read-out: IC50, 24 h
# [10] = 72 h exposure, read-out: IC50, 72 h
Compound,resistance factor (IC50 resistant/IC50 sensitive) (41McisR),IC50 (41McisR),IC50 (CH1),IC50 (A2780),IC50 (CH1cisR),resistance factor (IC50 resistant/IC50 sensitive) (CH1cisR),IC50 (41M),IC50 (A2780cisR),resistance factor (IC50 resistant/IC50 sensitive) (A2780cisR),"% IEC/adduct, frequency of interstrand crosslinks (calf thymus DNA)",unwinding angle per adduct (calf thymus DNA),t1/2 half time of the binding to calf thymus DNA (calf thymus DNA),"ΔTm, 0.2 M (calf thymus DNA; rb = 0.05)","ΔΔεmax, maximum of the positive CD band at around 275 nm (calf thymus DNA; rb = 0.05)",Pt-DNA adducts (OV-1063 cells [2]),Pt-DNA adducts (C-26 cells [3]),Penetration to cells (OV-1063 cells [4]),Penetration to cells (C-26 cells [5]),"ΔTm, 0.01M Na+ (calf thymus DNA; rb = 0.05, 0.01M Na+)",IC50 (OV-1063 cells [6]; [8]),other results
Trans-[PtCl2(4-picoline)(piperazine)].HCl [Complex 13],3.3,147 ± 10 µM,16 ± 2 µM,10 ± 3 µM,42 ± 3 µM,2.6,45 ± 3 µM,24 ± 3 µM,2.4,6%,17°,12 min,−3.5 0.C,−0.30,205 pmol Pt/50 μg DNA,297 pmol Pt/50 μg DNA,12307 pmol Pt/1 * 10^6 cells,54461 pmol Pt/1 * 10^6 cells,–,–,"caspase-3 activation, increase in fluorescence vs untreated cells ([1]; 5 hr, 6.5 μM piperidine complex or 7.5 μM piperazine complex): ~2 fold; caspase-3 activation, increase in fluorescence vs untreated cells ([1]; 16 hr): 3 fold; ΔTm, 0.01M Na+ (calf thymus DNA): +4.7 0.C; DNA platination relative to Cis-Pt (OV-1063 cells [2]; OV-1063 cells): 7 fold; DNA platination relative to Cis-Pt (C-26 cells [3]; C-26 cells): 7 fold; decrease of EtBr fluorescence intensity by DNA adducts (plasmid pS16-hGH DNA): considerable decrease in fluorescence"
"N.N.[Cl][Pt+2][Cl] [Transplatin, trans-[PtCl2(NH3)2], reference compound]",–,> 200 µM,> 200 µM,> 200 µM,> 200 µM,–,> 200 µM,> 200 µM,–,12%,9.4°,100 min,+0.6 0.C,−0.34,0 pmol Pt/50 μg DNA,0 pmol Pt/50 μg DNA,474 pmol Pt/1 * 10^6 cells,384 pmol Pt/1 * 10^6 cells,+8.7 0.C,81 ± 4.3 µM,IC50 (OV-1063 cells [6]; [9]): 73 ± 5.1 µM; IC50 (OV-1063 cells [6]; [10]): 52 ± 3.2 µM; IC50 (C-26 cells [7]; [8]): 64 ± 2 µM; IC50 (C-26 cells [7]; [9]): 46 ± 3.1 µM; IC50 (C-26 cells [7]; [10]): 41 ± 1.7 µM
"N.N.[Cl][Pt][Cl] [Cisplatin, cis-[PtCl2(NH3)2], reference compound]",4.1,107 µM,6 µM,2.2 µM,23 µM,3.8,26 µM,38 µM,17.3,6%,13°,100 min,−4.0 0.C,1.27,107 pmol Pt/50 μg DNA,149 pmol Pt/50 μg DNA,194 pmol Pt/1 * 10^6 cells,2244 pmol Pt/1 * 10^6 cells,−2.6 0.C,2 ± 0.5 µM,"caspase-3 fluorescent signal (caspase-3 in C-26 cells): No fluorescent signal; caspase-3 fluorescent signal ([1]; cisplatin 2 μM, 5 or 16 hrs): No fluorescent signal; Increase in life span (C-26 colon carcinoma): 108%; Survival (C-26 colon carcinoma): 24 ± 5 days; IC50 (OV-1063 cells [6]; [9]): 0.7 ± 0.2 µM; IC50 (OV-1063 cells [6]; [10]): 0.5 ± 0.2 µM; IC50 (C-26 cells [7]; [8]): 1.5 ± 1.3 µM; IC50 (C-26 cells [7]; [9]): 0.6 ± 0.1 µM; IC50 (C-26 cells [7]; [10]): 0.2 ± 0.2 µM"

# From US7122668B2, “Platinum complexes and their use in therapy” (priority 2002, dated 2006)
